According to ChEMBL document CHEMBL1150029, “QSAR of HIV inhibitors” (Bioorg Med Chem Lett, 1992):
Several values for one entry are separate records, joined by “and”; a condition that tells them apart may be missing. Identical values can stand only once. Activity calls are given as the source filed them. The calls are words filed in the database; no cut-off is given here.

Legend:
[1] = test system: MT4; test: Tested for 50% protection of MT-4 cells from HIV infection; type: functional
[2] = test system: ATH-8 cell line; test: Compound was tested for % Protection of ATH8 cells from HIV infection by 2 pM concentration of nucleoside; type: functional, Homo sapiens
[3] = test system: ATH-8 cell line; test: Compound was tested for % Protection of ATH8 cells from HIV infection by 2 pM concentration of nucleoside; inactive; type: functional, cell-based; conditions: Homo sapiens

With Cc1c(Sc2cccc(Cl)c2)n(COCCO)c(=O)[nH]c1=O the “Log 1/C” value [1] was 4.89.
In the case of Cc1c(Sc2cccc(C(C)(C)C)c2)n(COCCO)c(=O)[nH]c1=O, the “Log 1/C” value [1] is reported as 4.92.
For Cc1ccc(Sc2c(C)c(=O)[nH]c(=O)n2COCCO)cc1, the “Log 1/C” value [1] was 3.66.
For Cc1ccccc1Sc1c(C)c(=O)[nH]c(=O)n1COCCO, the “Log 1/C” value [1] was 4.15.
In the case of COc1cccc(Sc2c(C)c(=O)[nH]c(=O)n2COCCO)c1, the “Log 1/C” value [1] is reported as 4.66.
In the case of Cc1c(Sc2cccc(F)c2)n(COCCO)c(=O)[nH]c1=O, the “Log 1/C” value [1] is reported as 5.48.
In the case of Cc1cccc(Sc2c(C)c(=O)[nH]c(=O)n2COCCO)c1, the “Log 1/C” value [1] is reported as 5.59.
For COc1ccccc1Sc1c(C)c(=O)[nH]c(=O)n1COCCO, the “Log 1/C” value [1] was 4.72.
With CCc1c(Sc2cc(Cl)cc(Cl)c2)n(COCCO)c(=S)[nH]c1=O the “Log 1/C” value [1] was 7.37.
In the case of CC(C)c1c(Sc2ccccc2)n(COCCO)c(=O)[nH]c1=O, the “Log 1/C” value [1] is reported as 7.2.
COC(=O)c1cccc(Sc2c(C)c(=O)[nH]c(=O)n2COCCO)c1 was tested, and the “Log 1/C” value [1] was 5.1.
Nc1nc(Cl)nc2c1ncn2C1CCC(CO)O1 (stereo unspecified) was tested, and the Log [2] was 0%.
In the case of Cc1c(Sc2cccc(I)c2)n(COCCO)c(=O)[nH]c1=O, the “Log 1/C” value [1] is reported as 5.
CCc1cccc(Sc2c(C)c(=O)[nH]c(=O)n2COCCO)c1 was tested, and the “Log 1/C” value [1] was 5.57.
With Cc1c(Sc2cccc(C#N)c2)n(COCCO)c(=O)[nH]c1=O the “Log 1/C” value [1] was 5.
With CCc1c(Sc2cc(C)cc(C)c2)n(COCCO)c(=S)[nH]c1=O the “Log 1/C” value [1] was 8.11.
Cc1c(Sc2ccccc2[N+](=O)[O-])n(COCCO)c(=O)[nH]c1=O was tested, and the “Log 1/C” value [1] was 3.85.
Cc1cc(C)cc(Sc2c(C(C)C)c(=O)[nH]c(=S)n2COCCO)c1 was tested, and the “Log 1/C” value [1] was 8.3.
With C=CCc1c(Sc2ccccc2)n(COCCO)c(=O)[nH]c1=O the “Log 1/C” value [1] was 5.6.
For OCC1CCC(n2cnc3c(S)ncnc32)O1 (stereo unspecified), the Log [3] was “inactive”.
For COCc1cccc(Sc2c(C)c(=O)[nH]c(=O)n2COCCO)c1, the “Log 1/C” value [1] was 5.14.
In the case of CCCc1c(Sc2ccccc2)n(COCCO)c(=O)[nH]c1=O, the “Log 1/C” value [1] is reported as 5.47.
In the case of CCCc1c(Sc2ccccc2)n(COCCO)c(=S)[nH]c1=O, the “Log 1/C” value [1] is reported as 5.
CCc1c(Sc2ccccc2)n(COCCO)c(=O)[nH]c1=O was tested, and the “Log 1/C” value [1] was 6.92 and 6.96.
With Cc1c(Sc2cccc(O)c2)n(COCCO)c(=O)[nH]c1=O the “Log 1/C” value [1] was 4.09.
With Cc1c(Sc2cccc([N+](=O)[O-])c2)n(COCCO)c(=O)[nH]c1=O the “Log 1/C” value [1] was 4.47.
For Cc1cc(C)cc(Sc2c(C)c(=O)[nH]c(=S)n2COCCO)c1, the “Log 1/C” value [1] was 6.66.
For CC(C)c1c(Sc2ccccc2)n(COCCO)c(=S)[nH]c1=O, the “Log 1/C” value [1] was 7.23.
With Cc1c(Sc2cccc(Br)c2)n(COCCO)c(=O)[nH]c1=O the “Log 1/C” value [1] was 5.24.
In the case of Cc1c(Sc2cccc(C(F)(F)F)c2)n(COCCO)c(=O)[nH]c1=O, the “Log 1/C” value [1] is reported as 4.35.
For CCc1c(Sc2cc(Cl)cc(Cl)c2)n(COCCO)c(=O)[nH]c1=O, the “Log 1/C” value [1] was 7.85.
